Results published in US7553862B2, “4-amino-1,5-substituted-1,5-dihydro-imidazol-2-ones” (Hoffmann-La Roche Inc., priority 2006, dated 2009).

Molecular target: T1, mGlyT-1b (Mus musculus, UniProt P28571)
T1 construct: host or cells: Flp-in-CHO
T1 sequence (P28571 1-651 isoform P28571-2): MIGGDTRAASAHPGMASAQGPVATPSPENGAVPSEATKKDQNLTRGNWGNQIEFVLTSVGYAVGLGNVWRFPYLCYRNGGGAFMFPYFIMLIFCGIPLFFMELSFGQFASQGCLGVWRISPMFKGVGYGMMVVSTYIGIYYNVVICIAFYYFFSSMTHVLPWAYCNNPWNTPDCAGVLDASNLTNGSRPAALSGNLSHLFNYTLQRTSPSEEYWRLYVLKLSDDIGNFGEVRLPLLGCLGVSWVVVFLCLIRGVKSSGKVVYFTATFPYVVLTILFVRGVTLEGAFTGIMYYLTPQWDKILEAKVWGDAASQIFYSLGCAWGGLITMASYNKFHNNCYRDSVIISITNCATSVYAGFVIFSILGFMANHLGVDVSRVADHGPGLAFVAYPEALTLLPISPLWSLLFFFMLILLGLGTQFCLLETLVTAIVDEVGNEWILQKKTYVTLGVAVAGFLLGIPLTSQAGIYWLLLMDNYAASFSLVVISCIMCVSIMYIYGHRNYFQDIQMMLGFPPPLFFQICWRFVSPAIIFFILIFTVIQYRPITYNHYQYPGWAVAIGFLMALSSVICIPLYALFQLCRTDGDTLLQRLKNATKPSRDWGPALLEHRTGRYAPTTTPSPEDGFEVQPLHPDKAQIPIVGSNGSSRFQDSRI
Assay: Glycine uptake inhibition assay (mGlyT-1b)
Assay type: cell-based
Settings: [3H]-glycine uptake in Flp-in-CHO cells transfected with mGlyT-1b cDNA; read-out: IC50 (μM) at GlyT-1
Description: DMEM complete medium: Nutrient mixture F-12 (Gibco Life-technologies), fetal bovine serum (FBS) 5%, (Gibco life technologies), Penicillin/Streptomycin1% (Gibco life technologies), Hygromycin 0.6 mg/ml (Gibco life technologies), Glutamine 1 mM Gibco life technologies) Uptake buffer (UB): 150 mM NaCl, 10 mM Hepes-Tris, pH 7.4, 1 mM CaCl2, 2.5 mM KCl, 2.5 mM MgSO4, 10 mM (+) D-glucose.
Flp-in™-CHO (Invitrogen Cat n° R758-07) cells stably transfected with mGlyT1b cDNA.
Glycine Uptake Inhibition Assay (mGlyT-1b)
On day 1 mammalian cells, (Flp-in™-CHO), transfected with mGlyT-1b cDNA, were plated at the density of 40,000 cells/well in complete F-12 medium, without hygromycin in 96-well culture plates. On day 2, the medium was aspirated and the cells were washed twice with uptake buffer (UB). The cells were then incubated for 20 min at 22° C. with either (i) no potential competitor, (ii) 10 mM non-radioactive glycine, (iii) a concentration of a potential inhibitor. A range of concentrations of the potential inhibitor was used to generate data for calculating the concentration of inhibitor resulting in 50% of the effect (e.g. IC50, the concentration of the competitor inhibiting glycine uptake of 50%). A solution was then immediately added containing [^3H]-glycine 60 nM (11-16 Ci/mmol) and 25 μM non-radioactive glycine. The plates were incubated with gentle shaking and the reaction was stopped by aspiration of the mixture and washing (three times) with ice-cold UB. The cells were lysed with scintillation liquid, shaken 3 hours and the radioactivity in the cells was counted using a scintillation counter.

| IC50 [µM] | Compound |
| --- | --- |
| 0.062 | O=C1N=C(NCc2ccccc2)C(c2ccccc2)N1c1ccc(Cl)cc1 (racemic) [Example 10, (Rac)-4-benzylamino-1-(4-chloro-phenyl)-5-phenyl-1,5-dihydro-imidazol-2-one] |
| 0.076 | O=C1N=C(NCc2ccccc2)C(c2ccccc2)N1c1ccc(Cl)c(Cl)c1 (racemic) [Example 13, Rac-4-benzylamino-1-(3,4-dichloro-phenyl)-5-phenyl-1,5-dihydro-imidazol-2-one] |
| 0.04 | Cc1ccc(C2C(NCc3ccccc3)=NC(=O)N2c2ccc(Cl)c(Cl)c2)cc1 (racemic) [Example 24, (Rac)-4-benzylamino-1-(3,4-dichloro-phenyl)-5-p-tolyl-1,5-dihydro-imidazol-2-one] |
| 0.057 | Cc1ccc(C2C(NCc3ccccc3)=NC(=O)N2c2ccc(Cl)c(Cl)c2)cc1C (racemic) [Example 25, Rac-4-benzylamino-1-(3,4-dichloro-phenyl)-5-(3,4-dimethyl-phenyl)-1,5-dihydro-imidazol-2-one] |
| 0.035 | O=C1N=C(NCc2ccccc2)C(c2ccc(Cl)cc2)N1c1ccc(Cl)c(Cl)c1 (racemic) [Example 28, (Rac)-4-benzylamino-5-(4-chloro-phenyl)-1-(3,4-dichloro-phenyl)-1,5-dihydro-imidazol-2-one] |
| 0.03 | O=C1N=C(NCc2ccccc2)C(c2ccc(F)cc2)N1c1ccc(Cl)c(Cl)c1 (racemic) [Example 43, (Rac)-4-benzylamino-1-(3,4-dichloro-phenyl)-5-(4-fluoro-phenyl)-1,5-dihydro-imidazol-2-one] |
| 0.058 | O=C1N=C(NCc2ccccc2)C(c2ccc(F)cc2)N1c1ccc(F)c(Cl)c1 (racemic) [Example 44, Rac-4-Benzylamino-1-(3-chloro-4-fluoro-phenyl)-5-(4-fluoro-phenyl)-1,5-dihydro-imidazol-2-one] |
| 0.007 | O=C1N=C(NCc2ccc(F)cc2)C(c2ccccc2)N1c1ccc(Cl)c(Cl)c1 (racemic) [Example 51, Rac-1-(3,4-dichloro-phenyl)-4-(4-fluorobenzylamino)-5-phenyl-1,5-dihydro-imidazol-2-one] |
| 0.082 | CC(C)CCNC1=NC(=O)N(c2ccc(Cl)c(Cl)c2)C1c1ccccc1 (racemic) [Example 53, Rac-1-(3,4-dichloro-phenyl)-4-(3-methyl-butylamino)-5-phenyl-1,5-dihydroimidazol-2-one] |
| 0.077 | CCCCCCNC1=NC(=O)N(c2ccc(Cl)c(Cl)c2)C1c1ccccc1 (racemic) [Example 57, (Rac)-1-(3,4-dichloro-phenyl)-4-hexylamino-5-phenyl-1,5-dihydro-imidazol-2-one] |
| 0.024 | O=C1N=C(NCC2CCCCC2)C(c2ccccc2)N1c1ccc(Cl)c(Cl)c1 (racemic) [Example 58, (Rac)-4-(cyclohexylmethyl-amino)-1-(3,4-dichloro-phenyl)-5-phenyl-1,5-dihydro-imidazol-2-one] |
| 0.062 | O=C1N=C(NCc2ccccc2)[C@@H](c2ccccc2)N1c1ccc(Cl)cc1 (single isomer, unassigned) [Example 50, (−)-4-Benzylamino-1-(4-chloro-phenyl)-5-phenyl-1,5-dihydro-imidazol-2-one] |
